Data published in patent US7553821B2, “Methods for selectively modulating survivin apoptosis pathways” (Yale University, priority 2000, dated 2009).

System: HeLa cells
Test: Nuclear morphology of apoptosis (DAPI) in transfected HeLa cells
Type: cell-based
Source text: HeLa cells transfected with GFP-vector (vector), GFP-survivin(T34A) (T34A), or GFP-caspase-9 (Met^1-Asp^330) (caspase-9), were scored morphologically for nuclear integrity by DAPI staining after 48-h. Arrows, nuclear fragmentation and chromatin condensation in GFP-expressing cells.
The experimental procedures are the same as in A. Data are the meaνSEM of four independent experiments.
HeLa cells were transfected with the various indicated combinations of GFP-constructs, with or without etoposide (10 μg/ml) or TNFα (10 ng/ml) plus cycloheximide (10 μg/ml), harvested after 48 h, and GFP-labeled cells were morphologically scored for nuclear fragmentation by DAPI staining, as described in FIG. 2B. DN, dominant negative. Data are the mea±SEM of four independent experiments.
Transfection experiments. For transient transfection, HeLa cells in C-6 tissue culture plates (Costar, Cambridge, Mass.) at ˜60-70% confluency, were incubated in 1 ml of serum-free OptiMEM medium (Life Technologies, Gaithersburg, Md.) for 20 min, and transfected with 2.5 μg of the various plasmid cDNAs plus 9 μl Lipofectamine (Life Technologies). After a 5 h incubation at 37° C., the mixture was aspirated and substituted with complete growth medium for 48-72 h. To generate stable YUSAC-2 transfectants, a survivin(T34A) cDNA was inserted into the HindIII-SpeI sites of the pTet-splice vector (Dr. D. Schatz, Yale University School of Medicine), downstream of the regulatory sequences of the Tet-resistance operon (TetO). YUSAC-2 cells were transfected with 0.8 μg pTet-T34A, 0.8 μg of the transactivation/selection plasmid ptTA-Neo and 5 μl Lipofectamine in 1 ml of OptiMem. Forty-eight h after transfection, cells were re-plated at low density in 15×150 mm plates in growth medium containing 1.5 mg/ml Geneticin (G418, Life Technologies), 2 mM sodium hydroxide and 0.5 μg/ml Tet (Sigma, St. Louis, Mo.) (selection medium). After a 3-week culture, ninety-six individual clones were screened for differential growth in the presence or absence of Tet. […] Flow cytometry. HeLa cells transfected with the various GFP constructs in the presence or in the absence of the broad-spectrum caspase inhibitor Z-VAD-fmk (20 μM) were harvested after 48-h (non-adherent and adherent cells), washed in PBS, pH 7.0, and fixed in cold 70% ethanol for 30 min on ice. After washes in PBS, cells (10×10^6/ml) were stained with 25 μg/ml propidium iodide (Sigma), 0.05% Triton X-100 and 100 μg/ml RNAse A (Boehringer Mannheim, Indianapolis, Ind.) for 45 min at 22° C. Gated GFP-expressing cells were analyzed for DNA content by flow cytometry on a FACSort (Becton Dickinson, San Jose, Calif.) using a Cell Quest software. In other experiments, F5-C4 cells were synchronized at the G1/S boundary by culture with 5-mM thymidine for 16 h at 37° C., in the presence or in the absence of Tet. At the end of the incubation, cells were released from the thymidine block, and harvested at 3-h intervals for DNA content analysis by propidium iodide staining and flow cytometry, or, alternatively, for caspase-9 processing by Western blotting (see below). TUNEL staining. Internucleosomal DNA fragmentation of F5.C4 cells in the presence or in the absence of Tet was carried out by end-labeling with terminal deoxynucleotidyl transferase (TdT) and peroxidase-conjugated anti-digoxigenin antibody using the ApopTag kit (Intergen, Purchase, N.Y.), as described previously (Grossman et al., 1999). Immunoprecipitation and Western blotting. Asynchronously growing or synchronized HeLa cells were lysed in 200 μl of lysis buffer containing 50 mM Tris, pH 7.5, 1% NP-40, 0.25% DOC, 150 mM NaCl, 1 mM PMSF, 10 μg/ml aprotinin, 10 μg/ml leupeptin, 10 μg/ml pepstatin, 1 mM Na3VO4, 20 mM NaF, 0.2 mM EGTA, 1 mM EDTA, pH 8.0, for 30 min at 4° C. Insoluble material was removed by centrifugation at 14,000 rpm for 15 min, and two-hundred μg of protein lysate was pre-absorbed with 25 μl of a 50:50 Protein A Sepharose slurry (Pharmacia) for 3 h at 4° C. with constant agitation. […]

survivin(T34A): dominant-negative, non-phosphorylatable survivin mutant with Thr34→Ala substitution, expressed from transfected cDNA (also HA- or GFP-tagged)
spontaneous chromatin condensation and DNA fragmentation, GFP-expressing cells (GFP fusion, 48 h, no exogenous apoptotic stimuli): ~80% | ability to induce spontaneous apoptosis upon transient transfection (survivin BIR domain mutants): particularly effective
